Measured values: patent US10227606B2, “Method of increasing photosynthesis and yield of plants” (NATIONAL UNIVERSITY CORPORATION NAGOYA UNIVERSITY, priority 2013, dated 2019)

Test system: stomata (guard cells)
Assay: Measurement of the stomatal aperture in isolated epidermal tissue
Type: cell-based, Arabidopsis thaliana
Conditions: 20 μM ABA, 2.5 hours under illumination; AHA2-transgenic and wild-type plants
Description: The stomatal aperture was measured according to a conventional method (27) with slight modifications. Epidermal tissue isolated from plants 3 to 4 weeks after planting overnight dark-adapted plants was incubated in basal buffer (5 mM MES-BTP, pH 6.5, 50 mM KCl, and 0.1 mM CaCl2). To inhibit light-induced stomatal opening using ABA, the epidermal tissue was incubated under blue light/red light (10 μmol m^−2s^−1 blue light (Stick-B-32; EYELA, Tokyo, Japan) superimposed on 50 μmol ^m−2s^−1 background red light (LED-R; EYELA)) for 2.5 hours at 24° C. in the presence or absence or 20 μM ABA. The stomatal aperture in the abaxial epidermis was measured using a microscope. Stomatal aperture was represented as the average and standard error (SEM) for 25 stomata. Results were confirmed by blind reassessment by another researcher.

Question: `CC1=CC(=O)CC(C)(C)[C@@]1(O)/C=C/C(C)=C\C(=O)O` [ABA, abscisic acid] was tested. Which “effect of ABA on light-induced stomatal opening” value did it give?
Answer: inhibited
